Read-outs that look alike come from different tables or passages of the source.
Assays:
HT-1080 cells = test: Ferroptosis cell viability assay (Erastin-induced, CellTiter-Glo); assay type: cell-based; details: read-out: EC50, inhibition for ferroptosis in HT-1080 cell
Experimental: Cell Lines and Media: HT-1080 (fibrosarcoma) cells were obtained from American Type Culture Collection. Cells were grown in EMEM media, 10% Heat-Inactivated FBS, and penicillin-streptomycin mix (Invitrogen). Cells were maintained at 37° C. and 5% CO2 in a tissue culture incubator.
Cell Viability Assay. Seed 10,000 cell/well of HT-1080 cells with 195 μL growth media in black and clear bottom 96-well plates (Cat #Corning3904) and allow cells to adhere overnight. The next day, dilute test compound by 2-fold dilution into 12 points with medium containing 400 μM Erastin. Transfer 5 μL of compounds solution into growth medium in triplicated wells. 30 hours later, add Cell Titer-Glo® Luminescent cell viability assay reagent (Cat #, Promega G8081) to measure HT-1080 cell viability according to the manufacture protocol. Briefly, aspirate 100 μL medium, and add 50 μL CellTiter-Glo® Luminescent reagent to each well and incubated for 30 minutes at room temperature to stabilize the Luminescent signal. Seal the plates and centrifuged for 1 minute at 1,000 rpm to remove bubbles. Shake the plates for 1 minute on an orbital shaker. Read the plate to detect Luminescent signal with EnSpire Multimode Plate Reader (PerkinElmer). The remaining activity % is used to evaluate Erastin induced ferroptosis in HT-1080 cells and expressed as the following formula: % Remaining Activity=100×[(Sample−Backgroundavg)/(Vehicle−Backgroundavg)]
Sample: Readout from the test compound
Vehicle: Readout from the vehicle sample
Background: Readout from the Erastin only treatment
Dose response curve is graphed by using the non-linear regression analysis (formula equation 201) in XLFit (Excel add-in software) for the average % remaining activity from triplicates, and the EC50 values is then calculated. In this anti-ferroptosis assay, ferrostatin-1, and XJB-5-131 are included as reference. The acceptance criteria were set based on historical result, mean±2.58*SD in logarithmic scale, meanwhile Z′>0.5.

3T3-L1 cells = test: Apoptosis assay (Caspase-Glo 3/7, Actinomycin D induced); assay type: cell-based; details: 100 nM Actinomycin D, read-out: EC50, inhibition for apoptosis in 3T3-L1 cell induced by Actinomycin D
Experimental: Cell Lines and Media. 3T3-L1 cells were obtained from American Type Culture Collection. Cells were grown in DMEM completed media, 10% FBS, and penicillin-streptomycin mix (Invitrogen). Cells were maintained at 37° C. and 5% CO2 in a tissue culture incubator.
Apoptosis Assay. […] We used this assay to screen our compounds for apoptosis inhibition. Briefly, 40 μL of 3000 3T3-L1 cells were seeded per well in 384 well plates, Cells were allowed to adhere overnight. In the next day, prepare the Actinomycin D as the apoptosis inducing agent into 100 μM DMSO stock. Prepare the test compounds into 10 mM DMSO stock. Serial dilute the compound into 10 points by 3-fold dilution with DMSO. Pre-treat the 3T3-L1 cells with test compound by transfer 40 nL of stock of serial concentration in triplicate wells using acoustic fluid transfer, incubate for 2 hours. Then transfer 40 nL of 100 μM of Actinomycin D (final concentration is 100 nM) into designated wells using acoustic fluid transfer. Incubate the assay plates at 37° C., 5% CO2, 95% humidity incubator for 48 hours. For caspase assay, add 20 μL/well of Caspase-Glo® 3/7 reagent (Promega) into test wells. Incubate for 30 minutes at room temperature to stabilize the luminescence signal. Read the plate with EnSpire Multimode Plate Reader (PerkinElmer). Calculate the EC50 value using formula equation 201: y=(A+((B−A)/(1+((x/C)^D)))) from the XLFit (Excel add-in software), where • A: Average mean of vehicle samples • B: Average mean of cells treated with 100 nM AcD • C: EC50 • D: HillSlope Z′ factor was used to describe the screening assay performance. The Z′ factor value was >0.5 in all the test plates which indicated the assay was qualified and the IC50 value was reliable for all tested compounds.

EC50 (HT-1080 cells; Homo sapiens, HT-1080, 30 h) [nM] | EC50 (HT-1080 cells; 30 hours) [nM] | Compound | further results
– | 39.1 | CC1=C(C)C(=O)C(CCCC[C@H](NC(=O)[C@@H]2CCCN2C(=O)[C@H](/C=C/[C@H](CC(C)C)NC(=O)OC(C)(C)C)Cc2ccccc2)C(=O)NC(C)C)=C(C)C1=O [VI] | EC50 (3T3-L1 cells; 48 hours): 7320 nM
– | 119 | CC1=C(C)C(=O)C(CCC(=O)NCCCC[C@H](NC(=O)[C@@H]2CCCN2C(=O)[C@H](/C=C/[C@H](CC(C)C)NC(=O)OC(C)(C)C)Cc2ccccc2)C(=O)NC(C)C)=CC1=O [I, tert-Butyl ((4S,7S,E)-7-benzyl-8-((S)-2-(((S)-6-(3-(4,5-dimethyl-3,6-dioxocyclohexa-1,4-dien-1-yl)propanamido)-1-(isopropylamino)-1-oxohexan-2-yl)carbamoyl)pyrrolidin-1-yl)-2-methyl-8-oxooct-5-en-4-yl)carbamate] | EC50 (3T3-L1 cells; Mus musculus, 3T3-L1, 48 h): 1150 nM
80.5 | – | CCOC(=O)N[C@H](/C=C/[C@H](Cc1ccccc1)C(=O)N1CCC[C@H]1C(=O)N[C@@H](CCCCC1=C(C)C(=O)C(C)=C(C)C1=O)C(=O)NC(C)C)CC(C)C [VII, ethyl ((4S,7S,E)-7-benzyl-8-((S)-2-(((S)-1-(isopropylamino)-1-oxo-6-(2,4,5-trimethyl-3,6-dioxocyclohexa-1,4-dien-1-yl)hexan-2-yl)carbamoyl)pyrrolidin1-yl)-2-methyl-8-oxooct-5-en-4-yl)carbamate] | –
56.9 | – | CC1=C(C)C(=O)C(CCCOc2ccc(C[C@H](NC(=O)[C@@H]3CCCN3C(=O)[C@H](/C=C/[C@H](CC(C)C)NC(=O)OC(C)(C)C)Cc3ccccc3)C(=O)NC(C)C)cc2)=C(C)C1=O [X, tert-Butyl ((4S,7S,E)-7-benzyl-8-((S)-2-(((S)-1-(isopropylamino)-1-oxo-3-(4-(3-(2,4,5-trimethyl-3,6-dioxocyclohexa-1,4-dien-1-yl)propoxy)phenyl)propan-2-yl)carbamoyl)pyrrolidin-1-yl)-2-methyl-8-oxooct-5-en-4-yl)carbamate] | –
49.3 | – | CC1=C(C)C(=O)C(CCCOC(=O)NCCCC[C@H](NC(=O)[C@@H]2CCCN2C(=O)[C@H](/C=C/[C@H](CC(C)C)NC(=O)OCC2CC2)Cc2ccccc2)C(=O)NC(C)C)=C(C)C1=O [IX, Cyclopropylmethyl N-[(4S,5E,7S)-7-benzyl-2-methyl-8-oxo-8-[(2S)-2-{[(1S)-1-[(propan-2-yl)carbamoyl]-5-({[3-(2,4,5-trimethyl-3,6-dioxocyclohexa-1,4-dien-1-yl)propoxy]carbonyl}amino)pentyl]carbamoyl}pyrrolidin-1-yl]oct-5-en-4-yl]carbamate] | –
34.6 | – | COC1=C(OC)C(=O)C(CCCCCCCCCCOC(=O)NCCCC[C@H](NC(=O)[C@@H]2CCCN2C(=O)[C@H](/C=C/[C@H](CC(C)C)NC(=O)OC(C)(C)C)Cc2ccccc2)C(=O)NC(C)C)=C(C)C1=O [III, tert-butyl N-[(4S,5E,7S)-7-benzyl-8-[(2S)-2-{[(1S)-5-[({[10-(4,5-dimethoxy-2-methyl-3,6-dioxocyclohexa-1,4-dien-1-yl)decyl]oxy}carbonyl)amino]-1-[(propan-2-yl)carbamoyl]pentyl]carbamoyl}pyrrolidin-1-yl]-2-methyl-8-oxooct-5-en-4-yl]carbamate] | –
– | 24.4 | CC1=C(C)C(=O)C(CCC(=O)NCCCC[C@H](NC(=O)[C@@H]2CCCN2C(=O)[C@H](/C=C/[C@H](CC(C)C)NC(=O)OC(C)(C)C)Cc2ccccc2)C(=O)NC(C)C)=CC1=O [IV, tert-Butyl ((4S,7S,E)-7-benzyl-8-((S)-2-(((S)-6-(3-(4,5-dimethyl-3,6-dioxocyclohexa-1,4-dien-1-yl)propanamido)-1-(isopropylamino)-1-oxohexan-2-yl)carbamoyl)pyrrolidin-1-yl)-2-methyl-8-oxooct-5-en-4-yl) carbamate] | EC50 (3T3-L1 cells; 48 hours): 702 nM
– | 33 | CC1=C(C)C(=O)C(CCCOC(=O)NCCCC[C@H](NC(=O)[C@@H]2CCCN2C(=O)[C@H](/C=C/[C@H](CC(C)C)NC(=O)OC(C)(C)C)Cc2ccccc2)C(=O)NC(C)C)=CC1=O [II] | –
> 6000 | – | COc1c(C)c(C)c(OC)c(CCCOC(=O)NCCC[C@H](NC(=O)[C@@H](NC(=O)[C@@H]2CCCN2C(=O)[C@H](/C=C/[C@H](CC(C)C)NC(=O)OC(C)(C)C)Cc2ccccc2)C(C)C)C(=O)NC(C)C)c1C [VIII, tert-butyl N-[(4S,5E,7S)-7-benzyl-8-[(2S)-2-{[(1S)-1-{[(1S)-4-({[3-(2,5-dimethoxy-3,4,6-trimethylphenyl)propoxy]carbonyl}amino)-1-[(propan-2-yl)carbamoyl]butyl]carbamoyl}-2-methylpropyl]carbamoyl}pyrrolidin-1-yl]-2-methyl-8-oxooct-5-en-4-yl]carbamate] | –
196 | – | CC1=C(C)C(=O)C(CCCOC(=O)NCCCC[C@H](NC(=O)[C@@H]2CCCN2C(=O)[C@H](/C=C/[C@H](CC(C)C)NC(=O)OC(C)(C)C)Cc2ccccc2)C(=O)NC(C)C)=CC1=O [V, tert-butyl N-[(4S,5E,7S)-7-benzyl-8-[(2S)-2-{[(1S)-5-({[3-(4,5-dimethyl-3,6-dioxocyclohexa-1,4-dien-1-yl)propoxy]carbonyl}amino)-1-[(propan-2-yl)carbamoyl]pentyl]carbamoyl}pyrrolidin-1-yl]-2-methyl-8-oxooct-5-en-4-yl]carbamate] | EC50 (3T3-L1 cells; Mus musculus, 3T3-L1, 48 h): 2740 nM
47 | – | CC1=C(C)C(=O)C(CCCOC(=O)NCCC[C@H](NC(=O)[C@@H](NC(=O)[C@@H]2CCCN2C(=O)[C@H](/C=C/[C@H](CC(C)C)NC(=O)OC(C)(C)C)Cc2ccccc2)C(C)C)C(=O)NC(C)C)=C(C)C1=O [XI, tert-butyl N-[(4S,5E,7S)-7-benzyl-2-methyl-8-[(2S)-2-{[(1S)-2-methyl-1-{[[(1S)-1-[(propan-2-yl)carbamoyl]-4-({3-(2,4,5-trimethyl-3,6-dioxocyclohexa-1,4-dien-1-yl)propoxy]carbonyl}amino)butyl]carbamoyl}propyl]carbamoyl}pyrrolidin-1-yl]-8-oxooct-5-en-4-yl]carbamate] | –

Compound | EC50 (HT-1080 cells; Homo sapiens, HT-1080, 30 h) [nM] | EC50 (HT-1080 cells; 30 hours) [nM] | further results
CC1=C(C)C(=O)C(CCCOC(=O)NCCC[C@H](NC(=O)[C@@H]2CCCN2C(=O)[C@H](/C=C/[C@H](CC(C)C)NC(=O)OC(C)(C)C)Cc2ccccc2)C(=O)NC2CC2)=C(C)C1=O [XII, 3-(2,4,5-trimethyl-3,6-dioxocyclohexa-1,4-dien-1-yl)propyl N-[(4S)-4-{[(2S)-1-[(2S,3E,5S)-2-benzyl-5-{[(tert-butoxy)carbonyl]amino}-7-methyloct-3-enoyl]pyrrolidin-2-yl]formamido}-4-(cyclopropylcarbamoyl)butyl] carbamate] | 149 | – | –

— patent publication US11692008B2, “Preparation and uses of reactive oxygen species scavenger derivatives” (XWPHARMA LTD., priority 2017, dated 2023)
